Assay results: patent US20020026053A1, “Novel 3-(substituted) -2- indolinones compounds and use thereof as inhibitors of protein kinase activity” (priority 1997, published 2002)

Molecular target: T1, Met receptor (EGFR/Met chimeric cells, EMR) (Homo sapiens, UniProt P08581)
T1 construct: expressed in transfected cells; the other entry of the earlier key: EGFR (P00533, Epidermal growth factor receptor)
Experiment: Met Autophosphorylation Assay
Format: biochemical
Procedure, shortened: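 Transiently transfected EGFR/Met chimeric (EMR) cells were lysed in HNTG with 1 mM PMSF. Met was captured on plates coated with goat anti-rabbit IgG, then rabbit anti-Met (C-28), using 90 μg lysate/100 μl for 60 min at room temperature. Phosphotyrosine was read by ELISA.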

T1 sequence (P08581 with tags, fused parts or gaps): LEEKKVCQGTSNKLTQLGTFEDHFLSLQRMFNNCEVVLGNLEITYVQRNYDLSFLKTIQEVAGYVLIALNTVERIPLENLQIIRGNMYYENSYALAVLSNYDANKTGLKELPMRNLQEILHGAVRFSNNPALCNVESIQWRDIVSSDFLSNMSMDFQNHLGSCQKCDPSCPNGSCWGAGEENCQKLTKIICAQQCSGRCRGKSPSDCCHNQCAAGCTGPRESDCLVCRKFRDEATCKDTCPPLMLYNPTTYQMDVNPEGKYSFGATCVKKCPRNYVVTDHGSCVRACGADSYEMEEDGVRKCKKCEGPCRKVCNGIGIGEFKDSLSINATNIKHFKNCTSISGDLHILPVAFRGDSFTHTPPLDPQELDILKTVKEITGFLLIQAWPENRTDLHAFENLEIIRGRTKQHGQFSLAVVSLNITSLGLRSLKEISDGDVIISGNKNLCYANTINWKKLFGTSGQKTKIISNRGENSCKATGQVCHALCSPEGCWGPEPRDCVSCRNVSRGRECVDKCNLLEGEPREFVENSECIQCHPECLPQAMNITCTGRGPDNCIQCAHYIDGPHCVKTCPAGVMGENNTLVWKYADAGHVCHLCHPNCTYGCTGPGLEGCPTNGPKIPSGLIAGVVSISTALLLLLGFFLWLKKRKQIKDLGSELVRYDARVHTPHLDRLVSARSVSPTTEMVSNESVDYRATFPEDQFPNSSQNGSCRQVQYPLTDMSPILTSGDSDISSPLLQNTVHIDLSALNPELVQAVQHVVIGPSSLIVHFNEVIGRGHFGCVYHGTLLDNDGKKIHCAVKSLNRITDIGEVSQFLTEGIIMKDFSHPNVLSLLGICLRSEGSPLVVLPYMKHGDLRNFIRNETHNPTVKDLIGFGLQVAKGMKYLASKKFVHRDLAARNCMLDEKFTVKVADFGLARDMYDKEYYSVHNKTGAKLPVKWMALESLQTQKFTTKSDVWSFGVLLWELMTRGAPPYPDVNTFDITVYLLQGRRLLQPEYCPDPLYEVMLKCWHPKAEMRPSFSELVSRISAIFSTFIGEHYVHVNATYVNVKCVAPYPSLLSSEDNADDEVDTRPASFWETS

Cc1c(Br)cc(Br)c2c1C(=Cc1ccc(O)cc1)C(=O)N2 [10719/H07]
Met Kinase % Inhibition (P.130): 22.9%

Cc1c(Br)cc(Br)c2c1C(=Cc1ccc(N(C)C)cc1)C(=O)N2 [10719/H08]
Met Kinase % Inhibition (P.130): 20.0%

Cc1c(Br)cc(Br)c2c1C(=Cc1ccc(F)cc1Cl)C(=O)N2 [10719/H09]
Met Kinase % Inhibition (P.130): 5.8%

Cc1c(Br)cc(Br)c2c1C(=Cc1cccc([N+](=O)[O-])c1)C(=O)N2 [10719/H10]
Met Kinase % Inhibition (P.130): −5.7%

Cc1c(Br)cc(Br)c2c1C(=Cc1ccc(F)cc1C(F)(F)F)C(=O)N2 [10719/H11]
Met Kinase % Inhibition (P.130): 50.5%

Cc1c(Br)cc(Br)c2c1C(=Cc1c(F)cc(F)cc1F)C(=O)N2 [10720/H02]
Met Kinase % Inhibition (P.130): 64.1%

COc1cc(O)ccc1C=C1C(=O)Nc2c(Br)cc(Br)c(C)c21 [10720/H03]
Met Kinase % Inhibition (P.130): 40.0%

N#Cc1ccccc1C=C1C(=O)Nc2ccc(CCCl)cc21 [10735/G07]
Met Kinase % Inhibition (P.130): 37.1%

O=C1Nc2ccc(CCCl)cc2C1=Cc1c(F)cccc1F [10735/G08]
Met Kinase % Inhibition (P.130): 29.9%

O=C1Nc2ccc(CCCl)cc2C1=Cc1cccc2ccccc12 [10735/G09]
Met Kinase % Inhibition (P.130): 16.8%

O=C1Nc2ccc(CCCl)cc2C1=Cc1ccc(Cl)cc1Cl [10735/G10]
Met Kinase % Inhibition (P.130): 37.8%

O=C1Nc2ccc(CCCl)cc2C1=Cc1ccc(-c2ccccc2)cc1 [10735/G11]
Met Kinase % Inhibition (P.130): 23.0%

Cc1ccccc1C=C1C(=O)Nc2c(Br)cc(Br)c(C)c21 [10735/H02]
Met Kinase % Inhibition (P.130): 29.2%

Cc1c(Br)cc(Br)c2c1C(=Cc1ccc(F)c(F)c1)C(=O)N2 [10735/H03]
Met Kinase % Inhibition (P.130): 40.8%

Cc1c(Br)cc(Br)c2c1C(=Cc1cc(F)cc(F)c1)C(=O)N2 [10735/H04]
Met Kinase % Inhibition (P.130): 42.9%

Cc1c(Br)cc(Br)c2c1C(=Cc1cccc(C(F)(F)F)c1)C(=O)N2 [10735/H05]
Met Kinase % Inhibition (P.130): 49.8%

Cc1c(Br)cc(Br)c2c1C(=Cc1cc(C(F)(F)F)cc(C(F)(F)F)c1)C(=O)N2 [10735/H06]
Met Kinase % Inhibition (P.130): 57.2%

Cc1c(Br)cc(Br)c2c1C(=Cc1ccccc1C#N)C(=O)N2 [10735/H07]
Met Kinase % Inhibition (P.130): 48.5%

Cc1c(Br)cc(Br)c2c1C(=Cc1c(F)cccc1F)C(=O)N2 [10735/H08]
Met Kinase % Inhibition (P.130): 59.2%

Cc1c(Br)cc(Br)c2c1C(=Cc1cccc3ccccc13)C(=O)N2 [10735/H09]
Met Kinase % Inhibition (P.130): 22.4%

Cc1c(Br)cc(Br)c2c1C(=Cc1ccc(Cl)cc1Cl)C(=O)N2 [10735/H10]
Met Kinase % Inhibition (P.130): 29.9%

Cc1c(Br)cc(Br)c2c1C(=Cc1ccc(-c3ccccc3)cc1)C(=O)N2 [10735/H11]
Met Kinase % Inhibition (P.130): 22.8%

O=C1Nc2c(Br)cc(Br)cc2C1=Cc1ccc(Cl)cc1 [10736/A02]
Met Kinase % Inhibition (P.130): 72.5%

O=C1Nc2c(Br)cc(Br)cc2C1=Cc1ccccc1C(F)(F)F [10736/A03]
Met Kinase % Inhibition (P.130): 42.6%

Cc1cccc(C=C2C(=O)Nc3c(Br)cc(Br)cc32)c1 [10736/A04]
Met Kinase % Inhibition (P.130): 75.2%

Cc1ccc(C=C2C(=O)Nc3c(Br)cc(Br)cc32)cc1 [10736/A05]
Met Kinase % Inhibition (P.130): 73.6%

O=C1Nc2c(Br)cc(Br)cc2C1=Cc1cccc(Cl)c1 [10736/A06]
Met Kinase % Inhibition (P.130): 69.7%

O=C1Nc2c(Br)cc(Br)cc2C1=Cc1cccc(F)c1 [10736/A07]
Met Kinase % Inhibition (P.130): 55.2%

O=C1Nc2c(Br)cc(Br)cc2C1=Cc1ccccc1F [10736/A08]
Met Kinase % Inhibition (P.130): 58.7%

CCc1ccc(C=C2C(=O)Nc3c(Br)cc(Br)cc32)cc1 [10736/A09]
Met Kinase % Inhibition (P.130): 69.7%

COc1cccc(C=C2C(=O)Nc3c(Br)cc(Br)cc32)c1 [10736/A10]
Met Kinase % Inhibition (P.130): 65.0%

O=C1Nc2c(Br)cc(Br)cc2C1=Cc1ccccc1Cl [10736/A11]
Met Kinase % Inhibition (P.130): 46.1%

O=C1Nc2ccc(I)cc2C1=Cc1ccc(Cl)cc1 [10736/B02]
Met Kinase % Inhibition (P.130): 73.6%

O=C1Nc2ccc(I)cc2C1=Cc1ccccc1C(F)(F)F [10736/B03]
Met Kinase % Inhibition (P.130): 65.5%

Cc1cccc(C=C2C(=O)Nc3ccc(I)cc32)c1 [10736/B04]
Met Kinase % Inhibition (P.130): 65.5%

Cc1ccc(C=C2C(=O)Nc3ccc(I)cc32)cc1 [10736/B05]
Met Kinase % Inhibition (P.130): 63.9%

O=C1Nc2ccc(I)cc2C1=Cc1cccc(Cl)c1 [10736/B06]
Met Kinase % Inhibition (P.130): 60.6%

O=C1Nc2ccc(I)cc2C1=Cc1cccc(F)c1 [10736/B07]
Met Kinase % Inhibition (P.130): 87.2%

O=C1Nc2ccc(I)cc2C1=Cc1ccccc1F [10736/B08]
Met Kinase % Inhibition (P.130): 59.3%

CCc1ccc(C=C2C(=O)Nc3ccc(I)cc32)cc1 [10736/B09]
Met Kinase % Inhibition (P.130): 55.2%

COc1cccc(C=C2C(=O)Nc3ccc(I)cc32)c1 [10736/B10]
Met Kinase % Inhibition (P.130): 52.5%

O=C1Nc2ccc(I)cc2C1=Cc1ccccc1Cl [10736/B11]
Met Kinase % Inhibition (P.130): 47.0%

Cc1c(Br)ccc2c1C(=Cc1ccc(Cl)cc1)C(=O)N2 [10736/C02]
Met Kinase % Inhibition (P.130): 50.1%

Cc1c(Br)ccc2c1C(=Cc1ccccc1C(F)(F)F)C(=O)N2 [10736/C03]
Met Kinase % Inhibition (P.130): 9.9%

Cc1cccc(C=C2C(=O)Nc3ccc(Br)c(C)c32)c1 [10736/C04]
Met Kinase % Inhibition (P.130): 49.0%

Cc1ccc(C=C2C(=O)Nc3ccc(Br)c(C)c32)cc1 [10736/C05]
Met Kinase % Inhibition (P.130): 44.6%

Cc1c(Br)ccc2c1C(=Cc1cccc(Cl)c1)C(=O)N2 [10736/C06]
Met Kinase % Inhibition (P.130): 45.2%

Cc1c(Br)ccc2c1C(=Cc1cccc(F)c1)C(=O)N2 [10736/C07]
Met Kinase % Inhibition (P.130): 55.6%

Cc1c(Br)ccc2c1C(=Cc1ccccc1F)C(=O)N2 [10736/C08]
Met Kinase % Inhibition (P.130): 49.2%

CCc1ccc(C=C2C(=O)Nc3ccc(Br)c(C)c32)cc1 [10736/C09]
Met Kinase % Inhibition (P.130): 27.9%

COc1cccc(C=C2C(=O)Nc3ccc(Br)c(C)c32)c1 [10736/C10]
Met Kinase % Inhibition (P.130): 18.7%

Cc1c(Br)ccc2c1C(=Cc1ccccc1Cl)C(=O)N2 [10736/C11]
Met Kinase % Inhibition (P.130): 11.0%

CNS(=O)(=O)c1ccc2c(c1)C(=Cc1ccc(Cl)cc1)C(=O)N2 [10736/D02]
Met Kinase % Inhibition (P.130): 44.4%

CNS(=O)(=O)c1ccc2c(c1)C(=Cc1ccccc1C(F)(F)F)C(=O)N2 [10736/D03]
Met Kinase % Inhibition (P.130): 14.7%

CNS(=O)(=O)c1ccc2c(c1)C(=Cc1cccc(C)c1)C(=O)N2 [10736/D04]
Met Kinase % Inhibition (P.130): 8.1%

CNS(=O)(=O)c1ccc2c(c1)C(=Cc1ccc(C)cc1)C(=O)N2 [10736/D05]
Met Kinase % Inhibition (P.130): 3.9%

CNS(=O)(=O)c1ccc2c(c1)C(=Cc1cccc(Cl)c1)C(=O)N2 [10736/D06]
Met Kinase % Inhibition (P.130): 14.7%

CNS(=O)(=O)c1ccc2c(c1)C(=Cc1cccc(F)c1)C(=O)N2 [10736/D07]
Met Kinase % Inhibition (P.130): 15.4%

CNS(=O)(=O)c1ccc2c(c1)C(=Cc1ccccc1F)C(=O)N2 [10736/D08]
Met Kinase % Inhibition (P.130): 13.0%

CCc1ccc(C=C2C(=O)Nc3ccc(S(=O)(=O)NC)cc32)cc1 [10736/D09]
Met Kinase % Inhibition (P.130): 14.1%

CNS(=O)(=O)c1ccc2c(c1)C(=Cc1cccc(OC)c1)C(=O)N2 [10736/D10]
Met Kinase % Inhibition (P.130): 16.9%

CNS(=O)(=O)c1ccc2c(c1)C(=Cc1ccccc1Cl)C(=O)N2 [10736/D11]
Met Kinase % Inhibition (P.130): 22.6%

O=C1Nc2ccc(S(=O)(=O)Nc3ccc(C(F)(F)F)cc3)cc2C1=Cc1ccc(Cl)cc1 [10736/E02]
Met Kinase % Inhibition (P.130): 81.5%

O=C1Nc2ccc(S(=O)(=O)Nc3ccc(C(F)(F)F)cc3)cc2C1=Cc1ccccc1C(F)(F)F [10736/E03]
Met Kinase % Inhibition (P.130): 33.0%

Cc1cccc(C=C2C(=O)Nc3ccc(S(=O)(=O)Nc4ccc(C(F)(F)F)cc4)cc32)c1 [10736/E04]
Met Kinase % Inhibition (P.130): 61.8%

Cc1ccc(C=C2C(=O)Nc3ccc(S(=O)(=O)Nc4ccc(C(F)(F)F)cc4)cc32)cc1 [10736/E05]
Met Kinase % Inhibition (P.130): 57.6%

O=C1Nc2ccc(S(=O)(=O)Nc3ccc(C(F)(F)F)cc3)cc2C1=Cc1cccc(Cl)c1 [10736/E06]
Met Kinase % Inhibition (P.130): 66.6%

O=C1Nc2ccc(S(=O)(=O)Nc3ccc(C(F)(F)F)cc3)cc2C1=Cc1cccc(F)c1 [10736/E07]
Met Kinase % Inhibition (P.130): 45.9%

O=C1Nc2ccc(S(=O)(=O)Nc3ccc(C(F)(F)F)cc3)cc2C1=Cc1ccccc1F [10736/E08]
Met Kinase % Inhibition (P.130): 52.3%

CCc1ccc(C=C2C(=O)Nc3ccc(S(=O)(=O)Nc4ccc(C(F)(F)F)cc4)cc32)cc1 [10736/E09]
Met Kinase % Inhibition (P.130): 53.8%

COc1cccc(C=C2C(=O)Nc3ccc(S(=O)(=O)Nc4ccc(C(F)(F)F)cc4)cc32)c1 [10736/E10]
Met Kinase % Inhibition (P.130): 37.8%

O=C1Nc2ccc(S(=O)(=O)Nc3ccc(C(F)(F)F)cc3)cc2C1=Cc1ccccc1Cl [10736/E11]
Met Kinase % Inhibition (P.130): 64.4%

O=C1Nc2ccc(S(=O)(=O)N3CCOCC3)cc2C1=Cc1ccc(Cl)cc1 [10736/F02]
Met Kinase % Inhibition (P.130): 69.4%
